The record followed here is patent publication US20240252529A1, “ANTIVIRAL PHARMACEUTICAL COMPOSITION” (MARINOMED BIOTECH AG, priority 2020, published 2024).

Structures are written as SMILES.

The subject of this assay is SARS-CoV-2 spike glycoprotein pseudotyped lentivirus. In kind it is cell-based. Conditions: comparative polymers at 100 μg/ml; FIG. 3.

Take `O=C[C@H](O)[C@@H](O)[C@@H](OS(=O)(=O)O)[C@H](O)CO` [Gal-4-SO4, galactose-4-sulphate]: the “protection of target cells against infection” value was “only poorly effective”.
